Among the test systems are HOP-62 NSCLC; 786-0 renal; NCI-H23 lung; LOX IMVI melanoma; DU-145 prostate; MDA-MB-231 breast; COLO 205 colon; HCT-116 colon; OVCAR-4 ovarian; NCI-H522 lung.
Common to all, as to assay: NCI anticancer screen, dose series, 48 h

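These data come from cells grown in 96-well plates and exposed to compound for 48 hours at five concentrations. GI50 = concentration required for 50% inhibition of growth. Definition used: TGI = concentration required for complete inhibition of growth.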

In the case of `O=C1/C(=C/c2ccc(Cl)cc2)CCC/C1=C\c1ccc(Cl)cc1`, the GI50 in the assay with HOP-62 NSCLC is 8.1 µM; in the assay on 786-0 renal it was 5.55 µM; in the assay on NCI-H23 lung, 3.06 µM; with LOX IMVI melanoma, 1.69 µM; with DU-145 prostate, 4.09 µM; in the assay with MDA-MB-231 breast, 9.83 µM. The GI50 in the assay on COLO 205 colon was 4.17 µM; in the assay on HCT-116 colon, 1.65 µM; in the assay with OVCAR-4 ovarian it was 5.17 µM; in the assay with NCI-H522 lung, 2780 nM. Also, the TGI in the assay on HOP-62 NSCLC was over 100 µM; with 786-0 renal it was over 100 µM; in the assay on NCI-H23 lung, over 100 µM; in the assay with LOX IMVI melanoma, 3.42 µM; in the assay with DU-145 prostate, over 100 µM; in the assay with MDA-MB-231 breast, over 100 µM. The TGI with COLO 205 colon was over 100 µM; in the assay with HCT-116 colon, 3.02 µM; in the assay with OVCAR-4 ovarian, over 100 µM; in the assay on NCI-H522 lung, 8.52 µM.
With `CCc1ccc(C(=Nc2ccc(N(C)C(=O)CN3CCN(C)CC3)cc2)c2c(O)[nH]c3ccc(C(=O)OC)cc23)cc1`, the GI50 was 0.51 µM in the assay on HOP-62 NSCLC; 0.404 µM with 786-0 renal; 0.417 µM in the assay on NCI-H23 lung; 0.337 µM with LOX IMVI melanoma; 0.528 µM in the assay with DU-145 prostate; 0.585 µM with MDA-MB-231 breast. For the same molecule, the GI50 with COLO 205 colon is 0.319 µM; with HCT-116 colon, 0.0995 µM; in the assay with OVCAR-4 ovarian it was 0.582 µM; in the assay on NCI-H522 lung, 586 nM. The TGI was 2.17 µM in the assay with HOP-62 NSCLC; 1.86 µM in the assay on 786-0 renal; 2.03 µM in the assay with NCI-H23 lung; 1.63 µM with LOX IMVI melanoma; 1.84 µM in the assay with DU-145 prostate; 2.09 µM in the assay with MDA-MB-231 breast. In addition, the TGI with COLO 205 colon is 1.7 µM; in the assay with HCT-116 colon, 1.12 µM; in the assay on OVCAR-4 ovarian, 1.95 µM; in the assay on NCI-H522 lung, 2.38 µM.
For the molecule `CC1(N)CCN(c2cnc(-c3cccc(Cl)c3Cl)c(N)n2)CC1`, the GI50 in the assay on HOP-62 NSCLC is 4.28 µM; with 786-0 renal, 8.36 µM; in the assay with NCI-H23 lung, 5.99 µM; in the assay with LOX IMVI melanoma, 15.3 µM; with DU-145 prostate, 56.5 µM; with MDA-MB-231 breast, 18.2 µM. The GI50 is 16.9 µM in the assay with COLO 205 colon, 14.5 µM with HCT-116 colon, 7.47 µM in the assay with OVCAR-4 ovarian and 14900 nM in the assay on NCI-H522 lung. The TGI with HOP-62 NSCLC was 61.5 µM; in the assay on 786-0 renal, 22 µM; in the assay on NCI-H23 lung, over 100 µM; in the assay with LOX IMVI melanoma it was 30 µM; in the assay on DU-145 prostate, over 100 µM; in the assay on MDA-MB-231 breast, 48.7 µM. For the same molecule, the TGI in the assay on COLO 205 colon is 35.5 µM; in the assay with HCT-116 colon, 29 µM; in the assay with OVCAR-4 ovarian, over 100 µM; with NCI-H522 lung, 65.8 µM.
As to `Fc1cccc(-n2ccc(-c3ccccc3)nc2=S)c1`, the GI50 with HOP-62 NSCLC was over 63.4 µM; in the assay on 786-0 renal, 21.2 µM; in the assay on NCI-H23 lung, 15 µM; in the assay on LOX IMVI melanoma it was 16.1 µM; with DU-145 prostate it was 20.3 µM; in the assay with MDA-MB-231 breast it was 27.9 µM. The GI50 is 21.9 µM in the assay on HCT-116 colon, 98.6 µM in the assay on OVCAR-4 ovarian and 22700 nM in the assay on NCI-H522 lung. Further, the TGI was over 100 µM with HOP-62 NSCLC; 44.1 µM in the assay with 786-0 renal; 33.2 µM with NCI-H23 lung; 29.5 µM in the assay on LOX IMVI melanoma; 66.7 µM in the assay with DU-145 prostate; over 100 µM with MDA-MB-231 breast. For the same molecule, the TGI was 3.82 µM in the assay with COLO 205 colon, 61.3 µM in the assay on HCT-116 colon, over 100 µM with OVCAR-4 ovarian and 64.5 µM in the assay with NCI-H522 lung.
On to `CCN(CC)C(=S)SCN1C(=O)c2ccccc2S1(=O)=O`, for which the GI50 with HOP-62 NSCLC was 39.3 µM; with 786-0 renal, 31.4 µM; with NCI-H23 lung, 45.5 µM; in the assay on LOX IMVI melanoma, 29.5 µM; in the assay with DU-145 prostate it was 29.4 µM; in the assay on MDA-MB-231 breast, 50.9 µM. For the same molecule, the GI50 is 33.2 µM with COLO 205 colon, 54.2 µM in the assay on HCT-116 colon, 35.4 µM in the assay on OVCAR-4 ovarian and 391 nM in the assay on NCI-H522 lung. Further, the TGI with HOP-62 NSCLC is over 100 µM; in the assay with 786-0 renal, over 100 µM; with NCI-H23 lung, over 91.1 µM; in the assay on LOX IMVI melanoma, over 66.8 µM; in the assay with DU-145 prostate, over 100 µM; with MDA-MB-231 breast it was over 100 µM. Besides, the TGI in the assay on COLO 205 colon was over 100 µM; in the assay on HCT-116 colon, over 100 µM; in the assay with OVCAR-4 ovarian it was over 100 µM; in the assay with NCI-H522 lung, over 45 µM.

The values above are taken from PubChem BioAssay (NCI).
